Structures can show the parent of a compound that is named as a salt.
Assays:
[1] = system: indomethacin-induced gastric antral ulceration; test: Inhibition of indomethacin-induced gastric antral ulceration in the rat (modified Satoh et al.); format: in vivo; settings: for potency compared with other test compounds (in words): ranitidine bismuth citrate versus ranitidine hydrochloride and De-Nol, po; for potency compared with other test compounds (in words) / inhibition of indomethacin-induced lesions (in words): rats; for inhibition of indomethacin-induced lesions (in words): ranitidine bismuth citrate 1 to 100 mg/kg po
Description: The ability of ranitidine bismuth citrate to prevent indomethacin-induced gastric antral ulceration was compared with that of ranitidine hydrochloride and De-Nol™. Female rats, which had been fasted for 24 hours and then re-fed, received ranitidine bismuth citrate (1 to 100mg/kg), ranitidine hydrochloride (10 to 100mg/kg) or De-Nol™ (3 to 100mg/kg) by oral gavage. Ranitidine bismuth citrate was administered as a suspension and the other test compounds as solutions. Thirty minutes after dosing with the test compound, animals received indomethacin (60mg/kg sc) as an ulcerogenic stimulus and after a further 6 hours the animals were killed and the antral region assessed macroscopically for damage.

[2] = system: aspirin-induced injury to the gastric mucosa; settings: human clinical study, N. Hudson et al., Gut 1992, 33 supplement, s47; cited from earlier work
[3] = system: mucosal lesions of the gastrointestinal tract caused by non-steroidal anti-inflammatory drugs; test: Tests in animals and humans: mucosal lesions of the gastrointestinal tract caused by non-steroidal anti-inflammatory drugs; format: in vivo
[4] = listed as Ranitidine bismuth citrate
[5] = listed as ranitidine bismuth citrate

Molecule	ED50 ([1]; Rattus norvegicus, female rats, oral gavage 30 min before indomethacin 60 mg/kg sc, antral damage assessed after a further 6 hours)	potency compared with other test compounds (in words) [1]	protection from aspirin-induced injury to the gastric mucosa (in words) [2]	reduction of NSAID-caused mucosal lesions of the gastrointestinal tract (in words) [3]	ED50 for inhibition of indomethacin-induced antral ulceration ([1]; female rats, oral gavage 30 min before indomethacin 60 mg/kg sc, antral damage assessed after a further 6 hours)	inhibition of indomethacin-induced lesions (in words) [1, 4]	inhibition of indomethacin-induced lesions (in words) [1, 5]	potency compared with other test compounds (in words) [1, 4]	potency compared with other test compounds (in words) [1, 5]
CNC(=C[N+](=O)[O-])NCCSCc1ccc(CN(C)C)o1 [Ranitidine Hydrochloride, ranitidine hydrochloride, reference compound]	23.4 mg/kg	markedly less potent	–	–	–	–	–	–	–
N-[2-[[[5-[(dimethylamino)methyl]-2-furanyl]methyl]thio]ethyl]-N'-methyl-2-nitro-1,1-ethenediamine 2-hydroxy-1,2,3-propanetricarboxylate bismuth (3^+) complex [Ranitidine Bismuth Citrate]	–	–	substantial protection from aspirin-induced injury to the gastric mucosa	significantly reduced	4.5 mg/kg p.o.	dose-related inhibition of indomethacin-induced lesions	prevent indomethacin induced gastric antral ulceration	relatively potent	markedly more potent than both ranitidine hydrochloride and tripotassium dicitrato bismuthate as DeNol™

Source: US5466436A, “Medicaments for treating inflammatory conditions or for analgesia” (Glaxo Group Limited, priority 1991, dated 1995)
